These results are taken from PMC12452952, “Subtype-specific structural features of the hearing loss–associated human P2X2 receptor” (Proceedings of the National Academy of Sciences of the …, 2025).

Structures are written as SMILES.

For the assay, the target named is T1, human P2X2 receptor (hP2X2R) (Homo sapiens, UniProt Q9UBL9).
T1 construct: gene P2RX2; full-length wild-type
T1 sequence (Q9UBL9 1-471): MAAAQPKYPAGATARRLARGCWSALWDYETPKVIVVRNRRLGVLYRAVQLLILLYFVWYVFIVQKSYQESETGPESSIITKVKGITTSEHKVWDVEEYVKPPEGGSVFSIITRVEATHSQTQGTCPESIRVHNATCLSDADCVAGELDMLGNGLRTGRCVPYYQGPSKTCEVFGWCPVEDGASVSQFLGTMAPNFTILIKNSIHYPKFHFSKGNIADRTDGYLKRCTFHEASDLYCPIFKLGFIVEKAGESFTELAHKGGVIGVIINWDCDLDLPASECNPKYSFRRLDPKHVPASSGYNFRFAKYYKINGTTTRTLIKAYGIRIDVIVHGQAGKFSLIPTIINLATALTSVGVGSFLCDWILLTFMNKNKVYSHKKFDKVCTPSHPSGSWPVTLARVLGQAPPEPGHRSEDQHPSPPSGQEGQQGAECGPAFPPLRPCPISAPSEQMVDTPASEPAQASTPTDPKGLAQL
Briefly: cryo-EM structures of ATP-bound homotrimer ([…] and […] Å); EC50 by two-electrode voltage clamp in Xenopus oocytes (divalent-free). Type of assay: cell-based. On the technique in general: Two-electrode voltage clamp is typically applied to oocytes expressing channels or transporters.

For orientation: EC50 means the midpoint of the concentration-response curve. The low end stands for an effect from little substance, the high end for a need for much substance. Compound `Nc1ncnc2c1ncn2[C@@H]1O[C@H](COP(=O)(O)OP(=O)(O)OP(=O)(O)O)[C@@H](O)[C@H]1O` [ATP] had an EC50 of 156 ± 96 nM.
